{
  "source": "patent US12653796B2",
  "about": "“Compounds for use (in particular RIPA-56) in the prevention and/or treatment of non-alcoholic fatty liver disease” (SORBONNE UNIVERSITE, priority 2019, dated 2026)",
  "tested_on": "primary human hepatocytes",
  "assay": "Fat depletion in primary human hepatocytes with free fatty acid-induced steatosis",
  "assay_type": "cell-based",
  "conditions": "20 μM, 24 h",
  "procedure": "FIG. 7. RIPA-56 treatment induces fat depletion in primary human hepatocytes. Primary human hepatocytes were isolated from steatotic human livers of patients with NAFLD (n=5) (A-C) or from non-steatotic human livers and incubated with free fatty acids to induce steatosis or without (W/O) (n=5) (D-G), and treated with RIPA-56 (20 μM) or DMSO (vehicle) for 24 h. (A, D) Representative Oil Red-O and DAPI images; (B, E) Quantification of Oil Red-O staining normalized for the number of DAPI-stained nuclei; (C, F) Quantification of intracellular triglycerides normalized to protein content; (G) mRNA levels of CPT1A, MTTP and APOB100 were assessed by RT-qPCR, and shown relative to DMSO-treated hepatocytes. Results are shown as mean±SEM; n.s., not significant; *p<0.05; **p<0.01; scale bars, 100 μm. These findings are representative of five independent cell preparations.\nFIG. 9. MLKL controls intrahepatic triglyceride content in hepatocytes. (A-D) Primary human hepatocytes were isolated from non-steatotic human livers and incubated with free fatty acids to induce steatosis, or without (W/O), and treated with necrosulfonamide (NSA) (20 μM) or DMSO (vehicle) for 24 h. (A) Representative Oil Red-O and DAPI images; (B) Quantification of Oil Red-O staining normalized for the number of DAPI-stained nuclei; (C) Quantification of intracellular triglycerides normalized to protein content. (D) mRNA levels of CPT1A, MTTP and APOB100 were assessed by RT-qPCR and shown relative to DMSO-treated hepatocytes; (E-H) AML-12 cells were knocked-out (KO) for MLKL and compared with control (CTL) cells, which underwent a similar CRISPR-Cas9 selection as KO cells; (E) Whole-cell lysates were extracted from CTL and MLKL-KO AML-12 cells and analyzed by Western blot using antibodies against MLKL, Tubulin and GAPDH; (F) Representative Oil Red-O and DAPI images; (G) Oil Red-O staining and (H) triglycerides quantification in fat-loaded cell lines. Results are shown as mean±SEM; n.s., not significant; *p<0.05; **p<0.01; ***p<0.001; scale bars, 100 μm. These experiments are representative of five independent cell preparations.\nThe liver fragment was initially perfused with a prewarmed (37° C.) calcium-free buffer supplemented with 5 mmol/L ethylene glycol tetra-acetic acid (Sigma) followed by perfusion with a prewarmed (37° C.) buffer containing 6 mmol/L calcium (CaCl2) and collagenase 0.05% ([…]) (Sigma). The liver fragment was then gently shaken to disperse liver cells in Hepatocyte Wash Medium (Life Technologies, Villebon-sur-Yvette, France). The resulting cell suspension was filtered through a gauze-lined funnel. Cells were then centrifuged at low speed. The supernatant, containing damaged or dead hepatocytes, non-parenchymal cells and debris were removed and pelleted hepatocytes were re-suspended in Hepatocyte Wash Medium. The count of viable cells was determined using trypan blue exclusion. Freshly isolated normal (steatosis <5%) or steatotic (>10%) hepatocytes were resuspended in Williams medium E (Life technologies) containing 10% fetal calf serum (Eurobio), penicillin (200 U/mL)-streptomycin (200 μg/mL), Fungizone (2.5 μg/mL) and insulin (0.1 U/mL) (Life Technologies). The cells were seeded in 12-, 24- and 96-well plates pre-coated with type I collagen at a density of 0.78×10^6, 0.4×10^6 and 0.5×10^5 viable cells/well, respectively, and incubated overnight at 37° C. in a 5% CO2 atmosphere. The medium was replaced with fresh complete hepatocyte medium supplemented with 1 μmol/L hydrocortisone hemisuccinate (Laboratoires SERB, Paris, France) and hepatocytes were maintained in this medium. To induce steatosis in normal hepatocytes, PHH were incubated with free fatty acid (FFA) mixtures of oleic acid and palmitic acid in a molar ratio 2:1 (500:250 μmol/L), respectively, and with 1% fatty-acid-free BSA for 48 hours.\nTotal RNA was purified from liver tissue using TRIzol reagent (ThermoFisher) and a RNeasy Mini kit (Qiagen, Courtaboeuf, France). […]",
  "data": [
    {"smiles": "CCC(C)(C)C(=O)N(O)Cc1ccccc1", "note": "[RIPA-56, N-Benzyl-N-hydroxy-2,2-dimethylbutanamide]", "values": [
      {"measurement": "intracellular lipid droplets (Oil Red-O)", "setting": "FFA-induced steatosis", "result": "significant decrease"},
      {"measurement": "intracellular triglyceride content", "setting": "FFA-induced steatosis", "result": "significant decrease"},
      {"measurement": "CPT1A, APOB100 and MTTP expression (mRNA)", "setting": "RT-qPCR", "result": "up-regulation"}
    ]}
  ]
}
